In patent publication US10273237B2, “Imidazopyridazine compounds useful as modulators of IL-12, IL-23 and/or IFN-α responses” (BRISTOL-MYERS SQUIBB COMPANY, priority 2013, dated 2019) one finds IC50 data, which are given here for 46 molecules.

Read-outs that look alike come from different tables or passages of the source.

For assay [1], the system named is IL-23-stimulated Kit225 T cells with STAT-dependent luciferase reporter. The assay is described as follows: Kit225 T cell assay, STAT-dependent luciferase reporter, IL-23 stimulated. To be noted: read-out: IL-23 Kit225 Reporter, LE (IC50). Type of assay: cell-based, human. The method, boiled down:
(§1)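 Kit225 T cells carrying a stably integrated STAT-dependent luciferase reporter, in RPMI with 10% heat-inactivated FBS, stimulated with 20 ng/mL human recombinant IL-23 or 200 U/mL human recombinant IFNα for 5-6 h. Luciferase expression read by Steady-Glo luminescence.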

The test system of assay [2] is IFNα-stimulated Kit225 T cells with STAT-dependent luciferase reporter. The experiment in a line: Kit225 T cell assay, STAT-dependent luciferase reporter, IFNα stimulated. Type of assay: cell-based, human. To be noted: 5-6 hours, read-out: IFNa Kit225 Reporter, LE (IC50). The method, boiled down:
as §1

Where [3] appears, read: 20 ng/mL human recombinant IL-23, 5-6 hours.
The mark [4] stands for this setting: 200 U/mL human recombinant IFNα.
The mark [5] stands for this setting: Homo sapiens, KIT225, 20 ng/mL human recombinant IL-23, 5-6 hours.
The mark [6] stands for this setting: Homo sapiens, KIT225, 200 U/mL human recombinant IFNα.

As to `CNc1cc(Nc2cncn(-c3ccccn3)c2=O)nn2c(C(=O)NC3CCC3)cnc12` [Example 71], the IC50 is 210 nM in assay [1] (setting [3]) and 120 nM in assay [2] (setting [4]).

On to `CNc1cc(Nc2cccn(C)c2=O)nn2c(C(=O)NC3(C#N)CC3)cnc12` [Example 1, N-(1-Cyanocyclopropyl)-6-(1-methyl-2-oxo-1,2-dihydropyridin-3-ylamino)-8-(methylamino)imidazo[1,2-b]pyridazine-3-carboxamide], for which the IC50 in assay [1] (setting [5]) amounted to 480 nM; in assay [2] (setting [6]), 310 nM.

In the case of `CNc1cc(Nc2cc(F)cn(-c3ccc(C)nn3)c2=O)nn2c(C(=O)NC3CC3)cnc12` [Example 94], the figures for the IC50 in assay [1] (setting [3]) and in assay [2] (setting [4]) were 40 nM and 50 nM, respectively.

On to `CNc1cc(Nc2cccn(-c3cccnn3)c2=O)nn2c(C(=O)NCC(C)C)cnc12` [Example 112], for which the figures for the IC50 in assay [1] (setting [3]) and in assay [2] (setting [4]) were 280 nM and 520 nM, respectively.

Consider `CNc1cc(Nc2cccn(-c3ccc(C)nn3)c2=O)nn2c(C(=O)NC(C)C)cnc12` [Example 97], for which the IC50 is 190 nM in assay [1] (setting [3]) and 110 nM in assay [2] (setting [4]).

For the molecule `CNc1cc(Nc2cccn(-c3ccc(F)cc3)c2=O)nn2c(C(=O)NCC(C)(CO)CO)cnc12` [Example 14], the half-maximal inhibitory concentration (IC50) in assay [1] (setting [3]) turned out to be 570 nM; in assay [2] (setting [4]), 460 nM.

Regarding `CNc1cc(Nc2cc(F)cn(C3CC3)c2=O)nn2c(C(=O)NC3(C#N)CC3)cnc12` [Example 51], the figures for the IC50 in assay [1] (setting [3]) and in assay [2] (setting [4]) were 160 nM and 220 nM, respectively.

Consider `CNc1cc(Nc2cccn(-c3ccc(N4CCOCC4)cc3)c2=O)nn2c(C(=O)NC3CC3)cnc12` [Example 139], for which the IC50 in assay [1] (setting [3]) came out at 250 nM; in assay [2] (setting [4]), 190 nM.

Take `CNc1cc(Nc2cccn(C)c2=O)nn2c(C(=O)NCC(C)(C)CO)cnc12` [Example 9, N-(3-Hydroxy-2,2-dimethylpropyl)-6-((1-methyl-2-oxo-1,2-dihydropyridin-3-yl)amino)-8-(methylamino)imidazo[1,2-b]pyridazine-3-carboxamide]: the IC50 in assay [1] (setting [5]) amounted to 120 nM; in assay [2] (setting [6]) it was 40 nM.

With `CNc1cc(Nc2cccn(-c3cccc(C(C)(C)O)n3)c2=O)nn2c(C(=O)NC3CC3)cnc12` [Example 81], the half-maximal inhibitory concentration (IC50) in assay [1] (setting [3]) was found to be 180 nM; in assay [2] (setting [4]) it was 120 nM.

As for `CNc1cc(Nc2cccn(-c3ccn(C4CC4)n3)c2=O)nn2c(C(=O)N[C@@H]3C[C@@H]3F)cnc12` [Example 164], the figures for the IC50 in assay [1] (setting [3]) and in assay [2] (setting [4]) were 50 nM and 20 nM, respectively.

Turning to `CNc1ccc(-n2cccc(Nc3cc(NC)c4ncc(C(=O)NC5CC5)n4n3)c2=O)cn1` [Example 206], the IC50 in assay [1] (setting [3]) is 490 nM; in assay [2] (setting [4]) it was 380 nM.

In the case of `CNc1cc(Nc2cccn(-c3ccon3)c2=O)nn2c(C(=O)NC3CCC3)cnc12` [Example 56], the results for the IC50 in assay [1] (setting [3]) and in assay [2] (setting [4]) were 60 nM and 30 nM, respectively.

In the case of `CNc1cc(Nc2cccn(C3CCC(O)CC3)c2=O)nn2c(C(=O)NC3CC3)cnc12` (centres unmarked) [Example 227], the IC50 in assay [1] (setting [3]) was 620 nM; in assay [2] (setting [4]) it was 370 nM.

`CNc1cc(Nc2cccn(-c3ccc(F)cn3)c2=O)nn2c(C(=O)NCC(C)(C)CO)cnc12` [Example 33]: the figures for the IC50 in assay [1] (setting [3]) and in assay [2] (setting [4]) were 280 nM and 260 nM, respectively.

With `CNc1cc(Nc2cccn(-c3ccc(C)nn3)c2=O)nn2c(C(=O)NCCF)cnc12` [Example 102], the half-maximal inhibitory concentration (IC50) in assay [1] (setting [3]) and in assay [2] (setting [4]) was 260 nM throughout.

As to `CNc1cc(Nc2cccn(C(C)C)c2=O)nn2c(C(=O)NC3(C#N)CC3)cnc12` [Example 216], the IC50 in assay [1] (setting [3]) is 900 nM; in assay [2] (setting [4]), 440 nM.

Regarding `CNc1cc(Nc2cccn(-c3ncccn3)c2=O)nn2c(C(=O)N[C@@H]3C[C@@H]3F)cnc12` [Example 55], the IC50 worked out at 180 nM in assay [1] (setting [3]) and 230 nM in assay [2] (setting [4]).

`CNc1cc(Nc2cccn(-c3ccc(F)nc3)c2=O)nn2c(C(=O)N[C@@H]3C[C@@H]3F)cnc12` [Example 40]: the IC50 amounted to 160 nM in assay [1] (setting [3]) and 50 nM in assay [2] (setting [4]).

Turning to `CNc1cc(Nc2cccn(-c3cnccn3)c2=O)nn2c(C(=O)NC3CCC(O)C3(C)C)cnc12` (centres unmarked) [compound 259], the IC50 was 610 nM in assay [1] (setting [5]) and 420 nM in assay [2] (setting [6]).

Take `CNc1cc(Nc2cccn(-c3ccncc3)c2=O)nn2c(C(=O)NC3CC3)cnc12` [Example 128]: the IC50 in assay [1] (setting [3]) worked out at 440 nM; in assay [2] (setting [4]), 240 nM.

For `CNc1cc(Nc2cc(F)cn(CC(C)(C)O)c2=O)nn2c(C(=O)NC3CC3)cnc12` [Example 121], the half-maximal inhibitory concentration (IC50) in assay [1] (setting [3]) was found to be 590 nM; in assay [2] (setting [4]), 290 nM.

On to `CNc1cc(Nc2cccn(-c3ccccc3)c2=O)nn2c(C(=O)NC3CCC(O)C3(C)C)cnc12` (centres unmarked) [Example 237], for which the IC50 in assay [1] (setting [3]) came to 440 nM; in assay [2] (setting [4]), 400 nM.

As to `O=C(NC1CCC1)c1cnc2c3c(c(Nc4cccn(-c5ccccn5)c4=O)nn12)OCCN3` [Example 239, N-Cyclobutyl-6-((2-oxo-2H-[1,2′-bipyridin]-3-yl)amino)-9,10-dihydro-8H-imidazo[1′,2′:1,6]pyridazino[4,5-b][1,4]oxazine-3-carboxamide], the figures for the IC50 in assay [1] (setting [5]) and in assay [2] (setting [6]) were 210 nM and 100 nM, respectively.

Regarding `CNc1cc(Nc2cccn(-c3cccc(C)n3)c2=O)nn2c(C(=O)NC3CC3)cnc12` [Example 46], the IC50 was determined as 360 nM in assay [1] (setting [3]) and 160 nM in assay [2] (setting [4]).

`CNc1cc(Nc2cccn(-c3cnc(C(=O)N(C)C)cn3)c2=O)nn2c(C(=O)N[C@@H]3C[C@@H]3F)cnc12` [Example 256, 6-((1-(5-(Dimethylcarbamoyl)pyrazin-2-yl)-2-oxo-1,2-dihydropyridin-3-yl)amino)-N-((1R,2S)-2-fluorocyclopropyl)-8-(methylamino)imidazo[1,2-b]pyridazine-3-carboxamide]: the half-maximal inhibitory concentration (IC50) turned out to be 13 nM in assay [1] (setting [5]) and 9.8 nM in assay [2] (setting [6]).

In the case of `CNc1cc(Nc2cccn(-c3ccc(C)nn3)c2=O)nn2c(C(=O)NC3CCCC3)cnc12` [Example 95], the IC50 in assay [1] (setting [3]) was 160 nM; in assay [2] (setting [4]), 150 nM.

On to `CNc1cc(Nc2cccn(-c3nc4ccccc4[nH]3)c2=O)nn2c(C(=O)NC3CC3)cnc12` [Example 223], for which the IC50 in assay [1] (setting [3]) is 1180 nM; in assay [2] (setting [4]), 240 nM.

As for `CCC(=O)N1CCC(n2cccc(Nc3cc(NC)c4ncc(C(=O)NC5CC5)n4n3)c2=O)CC1` [Example 249], the IC50 in assay [1] (setting [5]) came out at 500 nM; in assay [2] (setting [6]), 250 nM.

In the case of `CNc1cc(Nc2cccn(-c3ccc(C(C)(C)O)cn3)c2=O)nn2c(C(=O)NC3CC3)cnc12` [Example 252, N-cyclopropyl-6-((5′-(2-hydroxypropan-2-yl)-2-oxo-2H-[1,2′-bipyridin]-3-yl)amino)-8-(methylamino)imidazo[1,2-b]pyridazine-3-carboxamide], the IC50 is 450 nM in assay [1] (setting [5]) and 190 nM in assay [2] (setting [6]).

Consider `CNc1cc(Nc2cccn(-c3ccn(C)n3)c2=O)nn2c(C(=O)NC3CCC3)cnc12` [Example 159], for which the IC50 in assay [1] (setting [3]) worked out at 30 nM; in assay [2] (setting [4]) it was 40 nM.

Regarding `CNc1cc(Nc2cccn(-c3ccc(F)cc3)c2=O)nn2c(C(=O)NCC3(CO)CC3)cnc12` [Example 29], the IC50 is 340 nM in assay [1] (setting [3]) and 200 nM in assay [2] (setting [4]).

On to `CNc1cc(Nc2cccn(-c3ccn(C)n3)c2=O)nn2c(C(=O)NC(C)C)cnc12` [Example 108], for which the IC50 is 210 nM in assay [1] (setting [3]) and 80 nM in assay [2] (setting [4]).

With `CNc1cc(Nc2cc(C)cn(-c3ccc(C)nn3)c2=O)nn2c(C(=O)NC3CCC3)cnc12` [Example 92], the 50% inhibitory concentration (IC50) in assay [1] (setting [3]) came out at 420 nM; in assay [2] (setting [4]), 620 nM.

Regarding `CNc1cc(Nc2cccn(C)c2=O)nn2c(C(=O)N[C@@H]3CCOC3)cnc12` [Example 57], the IC50 was determined as 300 nM in assay [1] (setting [3]) and 520 nM in assay [2] (setting [4]).

Turning to `CNc1cc(Nc2cccn(C3CC3)c2=O)nn2c(C(=O)NC3(C#N)CC3)cnc12` [Example 45], the values for the IC50 in assay [1] (setting [3]) and in assay [2] (setting [4]) were 370 nM and 200 nM, respectively.

In the case of `CNc1cc(Nc2cccn(-c3ccccn3)c2=O)nn2c(C(=O)NC3CCC(O)C3(C)C)cnc12` (centres unmarked) [Example 236], the IC50 in assay [1] (setting [3]) turned out to be 850 nM; in assay [2] (setting [4]) it was 350 nM.

For the molecule `CNc1cc(Nc2cccn(-c3cccc(F)c3)c2=O)nn2c(C(=O)NC3(C#N)CC3)cnc12` [Example 53], the IC50 in assay [1] (setting [3]) is 170 nM; in assay [2] (setting [4]) it was 80 nM.

Turning to `CNc1cc(Nc2cccn(-c3ccccc3F)c2=O)nn2c(C(=O)NC3(C#N)CC3)cnc12` [Example 156], the values for the IC50 in assay [1] (setting [3]) and in assay [2] (setting [4]) were 80 nM and 60 nM, respectively.

Take `CNc1cc(Nc2cccn(C(C)C)c2=O)nn2c(C(=O)NC3CC3)cnc12` [Example 213]: the IC50 in assay [1] (setting [3]) is 230 nM; in assay [2] (setting [4]), 420 nM.

As for `CNc1cc(Nc2cccn(-c3cccc(F)n3)c2=O)nn2c(C(=O)NC3(C#N)CC3)cnc12` [Example 167], the IC50 worked out at 100 nM in assay [1] (setting [3]) and 130 nM in assay [2] (setting [4]).

For the molecule `CNc1cc(Nc2cccn(-c3ccc(C(=O)N(C)C)cc3)c2=O)nn2c(C(=O)N[C@@H]3C[C@@H]3F)cnc12` [compound 266], the IC50 in assay [1] (setting [5]) turned out to be 120 nM; in assay [2] (setting [6]), 110 nM.

Turning to `CNc1cc(Nc2cccn(-c3ncc(F)cn3)c2=O)nn2c(C(=O)NC3CCC3)cnc12` [Example 173], the IC50 in assay [1] (setting [3]) and in assay [2] (setting [4]) was 50 nM in each case.

As to `CNc1cc(Nc2cccn(C)c2=O)nn2c(C(=O)N[C@H]3CCOC3)cnc12` [Example 58], the IC50 in assay [1] (setting [3]) was determined as 90 nM; in assay [2] (setting [4]), 970 nM.

In the case of `CNc1cc(Nc2cccn(C3CCN(CC(F)F)CC3)c2=O)nn2c(C(=O)NC3CC3)cnc12` [Example 250], the figures for the IC50 in assay [1] (setting [5]) and in assay [2] (setting [6]) were 100 nM and 390 nM, respectively.

Turning to `CNc1cc(Nc2cccn(-c3ccccc3)c2=O)nn2c(C(=O)NC3CCCC3O)cnc12` (centres unmarked) [Example 189], the IC50 was determined as 230 nM in assay [1] (setting [3]) and 190 nM in assay [2] (setting [4]).
